Data: publication PMC10638507 (Acta Pharmaceutica Sinica. B, 2023)

What was measured:
Format in all cases: biochemical, Paris polyphylla var. yunnanensis
UGT73CE1 = experiment: initial rates of rhamnoside formation, UPLC-MS/MS, Michaelis-Menten fit; settings: read-out: apparent KM; 1.5 mmol/L UDP-rhamnose, 50 mmol/L Tris-HCl pH 8.0, 37 °C, 30 min
UGT80A40 = experiment: initial rates of glucoside formation, UPLC-MS/MS, Michaelis-Menten fit; settings: read-out: apparent KM; 2 mmol/L UDP-glucose, 50 mmol/L Tris-HCl pH 8.0, 37 °C, 30 min
UGT80A41 = experiment: as above; settings: read-out: apparent KM; 2 mmol/L UDP-glucose, 50 mmol/L Tris-HCl pH 8.0, 37 °C, 30 min

Row | Km (UGT73CE1) | Km (UGT80A40) | Km (UGT80A41) | SMILES
1 | 7.1 ± 2.1 µM | – | – | C[C@@H]1CC[C@@]2(OC1)O[C@H]1C[C@H]3[C@@H]4CC=C5C[C@@H](O[C@@H]6O[C@H](CO)[C@@H](O)[C@H](O)[C@H]6O)CC[C@]5(C)[C@H]4CC[C@]3(C)[C@H]1[C@@H]2C [compound 3, trillin]
2 | – | 6.1 ± 0.7 µM | 5.9 ± 0.5 µM | C[C@@H]1CC[C@@]2(OC1)O[C@H]1C[C@H]3[C@@H]4CC=C5C[C@@H](O)CC[C@]5(C)[C@H]4CC[C@]3(C)[C@H]1[C@@H]2C [compound 1, diosgenin]
